According to patent US20250215029A1 (Recludix Pharma, Inc., priority 2022, published 2025):
Where two headings read alike, the source gives them in different places.

Key:
[1] = biological target: T1, Recombinant STAT3 protein (STAT3 (G127-I722)) (Homo sapiens, UniProt P40763); assay: STAT3 Fluorescence Polarization (FP) Assay; type: binding; conditions: probe 5-FAM-GpYLPQTV-NH2 2 nM, 45-minute incubation
T1 construct: Recombinant STAT3 protein (STAT3 (G127-I722))
Outline: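 In this competition FP format, STAT3 residues G127-I722 (25 nM) and 2 nM 5-FAM-GpYLPQTV-NH2 met test compounds for 45 min at room temperature. IC50 values result from fitting mP signal against log concentration by nonlinear regression.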

[2] = biological target: T2, Recombinant STAT6 protein (STAT6 (W123-T658)) (Homo sapiens, UniProt P42226); assay: STAT6 Fluorescence Polarization (FP) Assay; type: binding; conditions: probe 5-FAM-Ap[…]-NH2 2 nM, 45-minute incubation
T2 construct: Recombinant STAT6 protein (STAT6 (W123-T658))
T2 sequence (P42226 123-658): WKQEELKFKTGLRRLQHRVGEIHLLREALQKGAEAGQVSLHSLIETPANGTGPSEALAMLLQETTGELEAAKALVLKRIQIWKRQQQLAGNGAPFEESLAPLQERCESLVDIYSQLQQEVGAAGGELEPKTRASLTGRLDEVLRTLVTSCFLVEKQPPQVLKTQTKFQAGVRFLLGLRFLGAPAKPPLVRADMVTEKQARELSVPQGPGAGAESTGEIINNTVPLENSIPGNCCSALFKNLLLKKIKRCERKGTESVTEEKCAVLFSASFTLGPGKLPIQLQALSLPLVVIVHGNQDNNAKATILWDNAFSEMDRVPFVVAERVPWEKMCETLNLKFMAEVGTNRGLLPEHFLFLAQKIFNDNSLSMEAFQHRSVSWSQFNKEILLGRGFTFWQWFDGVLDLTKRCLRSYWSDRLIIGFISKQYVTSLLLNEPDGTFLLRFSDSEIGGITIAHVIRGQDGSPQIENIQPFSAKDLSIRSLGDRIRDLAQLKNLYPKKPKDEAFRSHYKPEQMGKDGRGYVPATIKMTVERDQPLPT
Outline: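 Displacement of a fluorescent phosphotyrosine peptide (2 nM) from 250 nM STAT6 (W123-T658) is measured by polarization after a 45-minute room-temperature incubation. Compounds are titrated serially at 1% DMSO, and IC50 values derive from regression of mP on log concentration.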

[3] = STAT3 (G127-I722) 25 nM, read-out: STAT3 (FP assay IC50 class)
[4] = STAT6 (W123-T658) 250 nM, read-out: STAT6 (FP assay IC50 class)
[5] = STAT3 25 nM, read-out: STAT3 (FP assay IC50)
[6] = STAT6 250 nM, read-out: STAT6 (FP assay IC50)

T1 sequence (P40763 127-722): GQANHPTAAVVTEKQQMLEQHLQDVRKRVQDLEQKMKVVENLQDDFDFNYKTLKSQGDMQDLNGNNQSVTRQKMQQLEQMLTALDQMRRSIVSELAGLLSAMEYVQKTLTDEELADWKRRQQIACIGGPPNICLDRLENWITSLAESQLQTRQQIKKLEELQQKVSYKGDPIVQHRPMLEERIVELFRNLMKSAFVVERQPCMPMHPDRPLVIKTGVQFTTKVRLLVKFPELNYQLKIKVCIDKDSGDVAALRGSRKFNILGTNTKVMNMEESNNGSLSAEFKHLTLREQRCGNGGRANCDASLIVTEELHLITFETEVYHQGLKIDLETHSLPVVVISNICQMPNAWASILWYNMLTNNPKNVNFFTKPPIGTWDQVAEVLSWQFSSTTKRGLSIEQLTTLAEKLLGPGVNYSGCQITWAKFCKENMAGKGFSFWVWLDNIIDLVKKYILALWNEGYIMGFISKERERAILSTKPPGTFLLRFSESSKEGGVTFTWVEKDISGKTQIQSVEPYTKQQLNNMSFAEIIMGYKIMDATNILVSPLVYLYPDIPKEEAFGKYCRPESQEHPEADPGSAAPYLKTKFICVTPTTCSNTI

Structure (SMILES) | IC50 [1, 3] | IC50 [2, 4] | IC50 [1, 5] | IC50 [2, 6]
O=C(N[C@H]1CCCC[C@H]2CC[C@@H](C(=O)N3CC(C(=O)N4CCOCC4)C3)N2C1=O)c1cc2cc(C(F)(F)P(=O)(O)O)ccc2s1 [Compound 93, (difluoro(2-(((3S,6S,10aS)-3-(3-(morpholine-4-carbonyl)azetidine-1-carbonyl)-5-oxodecahydropyrrolo [1,2-a]azocin-6-yl)carbamoyl)benzo[b]thiophen-5-yl)methyl) phosphonic acid] | – | – | 0.1 to 1 µM | 3 to 30 µM
Cn1nccc1N1CC[C@@H](NC(=O)[C@@H]2CC[C@@H]3CCCC[C@H](NC(=O)c4cc5cc(C(F)P(=O)(O)O)ccc5s4)C(=O)N32)C1 (stereo partly drawn) [Compound 542, (fluoro(2-(((3S,6S,10aS)-3-(((R)-1-(1-methyl-1H-pyrazol-5-yl)pyrrolidin-3-yl)carbamoyl)-5-oxodecahydropyrrolo[1,2-a]azocin-6-yl)carbamoyl)benzo[b]thiophen-5-yl)methyl)phosphonic acid] | 1 to 10 µM | 3 to 30 µM | – | –
Cn1cc(C2CN(C(=O)[C@@H]3CC[C@@H]4CCC[C@H](NC(=O)c5cc6cc(C(F)P(=O)(O)O)ccc6s5)C(=O)N43)C2)cn1 (stereo partly drawn) [Compound 716, (fluoro(2-(((3S,6S,9aS)-3-(3-(1-methyl-1H-pyrazol-4-yl)azetidine-1-carbonyl)-5-oxooctahydro-1H-pyrrolo[1,2-a]azepin-6-yl)carbamoyl)benzo [b]thiophen-5-yl)methyl) phosphonic acid] | 1 to 10 µM | 3 to 30 µM | – | –
N#C[C@@H]1[C@@H](c2cncc(Cl)c2)CN(C(=O)[C@@H]2CC[C@@H]3CCC[C@H](NC(=O)c4cc5cc([C@H](F)P(=O)(O)O)ccc5s4)C(=O)N32)C12CC2 (single isomer, unassigned) [Compound 841] | 1 to 10 µM | 0.3 to 3 µM | – | –
Cc1ccncc1C1CN(C(=O)[C@@H]2CC[C@@H]3CCC[C@H](NC(=O)c4cc5cc(C(F)(F)P(=O)(O)O)ccc5s4)C(=O)N32)C1 [Compound 783, (difluoro(2-(((3S,6S,9aS)-3-(3-(4-methylpyridin-3-yl)azetidine-1-carbonyl)-5-oxooctahydro-1H-pyrrolo[1,2-a]azepin-6-yl)carbamoyl)benzo [b]thiophen-5-yl)methyl) phosphonic acid] | > 10 µM | > 30 µM | – | –
N#C[C@H]1CN(C(=O)[C@@H]2CC[C@@H]3CCCC[C@H](NC(=O)c4cc5cc(C(F)(F)P(=O)(O)O)ccc5s4)C(=O)N32)C[C@@H]1CC1CCOCC1 (racemic) [Compound 88, ((2-(((3S,6S,10aS)-3-(rel-(trans)-3-cyano-4-((tetrahydro-2H-pyran-4-yl)methyl)pyrrolidine-1-carbonyl)-5-oxodecahydropyrrolo [1,2-a]azocin-6-yl)carbamoyl)benzo[b]thiophen-5-yl)difluoromethyl) phosphonic acid] | – | – | 1 to 10 µM | 0.3 to 3 µM
O=C(N[C@H]1CCC[C@H]2CC[C@@H](C(=O)N3CC(c4cnccc4N4C5COCC4C5)C3)N2C1=O)c1cc2cc(C(F)P(=O)(O)O)ccc2s1 (stereo partly drawn) [Compound 671, ((2-(((3S,6S,9aS)-3-(3-(4-(3-oxa-6-azabicyclo[3.1.1]heptan-6-yl)pyridin-3-yl)azetidine-1-carbonyl)-5-oxooctahydro-1H-pyrrolo[1,2-a]azepin-6-yl)carbamoyl)benzo [b]thiophen-5-yl)fluoromethyl) phosphonic acid] | < 0.1 µM | 0.3 to 3 µM | – | –
O=C(N[C@H]1CCC[C@H]2CC[C@@H](C(=O)N3CC(c4cccnc4)CC34CC4)N2C1=O)c1cc2cc(C(F)P(=O)(O)O)ccc2s1 (stereo partly drawn) [Compound 907, (fluoro(2-(((3S,6S,9aS)-5-oxo-3-(6-(pyridin-3-yl)-4-azaspiro[2.4]heptane-4-carbonyl)octahydro-1H-pyrrolo[1,2-a]azepin-6-yl)carbamoyl)benzo [b]thiophen-5-yl)methyl) phosphonic acid] | 1 to 10 µM | ≤ 0.3 µM | – | –

More lines, now with the values ahead:

IC50 [1, 3] | IC50 [2, 4] | IC50 [1, 5] | IC50 [2, 6] | Structure (SMILES)
< 0.1 µM | 0.3 to 3 µM | – | – | O=C(N[C@H]1CCC[C@H]2CC[C@@H](C(=O)NCc3ccc4[nH]cnc4c3)N2C1=O)c1cc2cc(C(F)(F)P(=O)(O)O)ccc2s1 [Compound 1115, ((2-(((3S,6S,9aS)-3-(((1H-benzo[d]imidazol-5-yl)methyl)carbamoyl)-5-oxooctahydro-1H-pyrrolo[1,2-a]azepin-6-yl)carbamoyl)benzo[b]thiophen-5-yl)difluoromethyl)phosphonic acid]
< 0.1 µM | 3 to 30 µM | – | – | C[C@H]1C[C@H]2CC[C@@H](C(=O)N3CC(c4cncnc4N4CCC4)C3)N2C(=O)[C@@H](NC(=O)c2cc3cc([C@H](F)P(=O)(O)O)ccc3s2)C1 (single isomer, unassigned) [Compound 676]
0.1 to 1 µM | 3 to 30 µM | – | – | Cc1ccncc1C1CN(C(=O)[C@@H]2CC[C@@H]3CCC[C@H](NC(=O)c4cc5cc(CP(=O)(O)O)ccc5s4)C(=O)N32)C1 [Compound 214, ((2-(((3S,6S,9aS)-3-(3-(4-methylpyridin-3-yl)azetidine-1-carbonyl)-5-oxooctahydro-1H-pyrrolo[1,2-a]azepin-6-yl)carbamoyl)benzo[b]thiophen-5-yl)methyl)phosphonic acid]
1 to 10 µM | ≤ 0.3 µM | – | – | CCC[C@H]1CC[C@H](NC(=O)c2cc3cc(C(F)P(=O)(O)O)ccc3s2)C(=O)N2[C@H](CC[C@H]2C(=O)N2C[C@@H](C#N)[C@H](c3ccccc3)C2)C1 (single isomer, unassigned) [Compound 240]
1 to 10 µM | ≤ 0.3 µM | – | – | N#C[C@@H]1[C@@H](c2ccccc2)CN(C(=O)[C@@H]2CC[C@@H]3CCCC[C@H](NC(=O)c4ccc5ccc(C(F)P(=O)(O)O)cc5c4)C(=O)N32)C12CC2 (single isomer, unassigned) [Compound 894]
< 0.1 µM | 3 to 30 µM | – | – | C[C@H]1CC[C@H](NC(=O)c2cc3cc(CP(=O)(O)O)ccc3s2)C(=O)N2[C@H](CC[C@H]2C(=O)N2CC(c3cnccc3F)C2)C1 [Compound 585, ((2-(((3S,6S,9S,10aR)-3-(3-(4-fluoropyridin-3-yl)azetidine-1-carbonyl)-9-methyl-5-oxodecahydropyrrolo[1,2-a]azocin-6-yl)carbamoyl)benzo[b]thiophen-5-yl)methyl)phosphonic acid]
< 0.1 µM | 3 to 30 µM | – | – | C[C@@H]1C[C@H]2CC[C@@H](C(=O)N3CC(c4cnccc4N(C)C)C3)N2C(=O)[C@@H](NC(=O)c2cc3cc(CP(=O)(O)O)ccc3s2)C1 [Compound 639, ((2-(((3S,6S,8S,9aR)-3-(3-(4-(dimethylamino)pyridin-3-yl)azetidine-1-carbonyl)-8-methyl-5-oxooctahydro-1H-pyrrolo[1,2-a]azepin-6-yl)carbamoyl)benzo [b]thiophen-5-yl)methyl) phosphonic acid]
< 0.1 µM | 3 to 30 µM | – | – | CC1C(c2cccnc2)CN1C(=O)[C@@H]1CC[C@@H]2CCC[C@H](NC(=O)c3cc4cc(C(F)P(=O)(O)O)ccc4s3)C(=O)N21 (stereo partly drawn) [Compound 602, (fluoro(2-(((3S,6S,9aS)-3-(2-methyl-3-(pyridin-3-yl)azetidine-1-carbonyl)-5-oxooctahydro-1H-pyrrolo[1,2-a]azepin-6-yl)carbamoyl)benzo [b]thiophen-5-yl)methyl) phosphonic acid]
0.1 to 1 µM | 3 to 30 µM | – | – | CCOC1(c2nncn2C)CN(C(=O)[C@@H]2CC[C@@H]3CCC[C@H](NC(=O)c4cc5cc(C(F)(F)P(=O)(O)O)ccc5s4)C(=O)N32)C1 [Compound 808, ((2-(((3S,6S,9aS)-3-(3-ethoxy-3-(4-methyl-4H-1,2,4-triazol-3-yl)azetidine-1-carbonyl)-5-oxooctahydro-1H-pyrrolo[1,2-a]azepin-6-yl)carbamoyl)benzo [b]thiophen-5-yl)difluoromethyl) phosphonic acid]
< 0.1 µM | 3 to 30 µM | – | – | C[C@H]1C[C@H]2CC[C@@H](C(=O)N3CC(c4cnccc4F)C3)N2C(=O)[C@@H](NC(=O)c2cc3cc(C(F)P(=O)(O)O)ccc3s2)C1 (stereo partly drawn) [Compound 207, (fluoro(2-(((3S,6S,8R,9aR)-3-(3-(4-fluoropyridin-3-yl)azetidine-1-carbonyl)-8-methyl-5-oxooctahydro-1H-pyrrolo[1,2-a]azepin-6-yl)carbamoyl)benzo[b]thiophen-5-yl)methyl)phosphonic acid]
